In the NIST ThermoML archive (doi:10.1016/j.fluid.2013.11.026):
Numbers after ± are expanded uncertainties.

Legend:
[1] = 101.33 kPa, Liquid, Vibrating tube method
[2] = refractive index (Na D-line) (dimensionless); details: 101.33 kPa, Liquid, Standard Abbe refractometry
[3] = xn = mol fraction of the nth substance listed; details: 101 kPa, Liquid, Vibrating tube method
[4] = excess molar enthalpy (molar enthalpy of mixing); xn = mol fraction of the nth substance listed; details: 101 kPa, Liquid, Calvet calorimetry

CCCOC=O [propyl methanoate]
Details | mass density, [1] [kg/m3] | refractive index, [2]
291.15 K | 907.97 ± 1.6 | 1.3778 ± 0.0008
298.15 K | 899.86 ± 1.6 | 1.3752 ± 0.0008

CCCCC [pentane] + COC=O
Details | mass density [kg/m3]
[3], 291.15 K, x2 = 0 | 627.86 ± 0.23

CCCCOC=O [butyl methanoate]
Details | mass density, [1] [kg/m3] | refractive index, [2]
291.15 K | 895.86 ± 1.2 | 1.3904 ± 0.0007
298.15 K | 888.47 ± 1.2 | 1.3872 ± 0.0007

CCCOC=O [propyl methanoate] + CCCCC
Details | excess molar enthalpy, [4] [kcal/mol] | mass density, [3] [kg/m3]
291.15 K, x1 = 0.057 | – | 639.86 ± 0.28
291.15 K, x1 = 0.0666 | 0.0844 ± 0.000956 | –
291.15 K, x1 = 0.117 | – | 653.61 ± 0.3
291.15 K, x1 = 0.1411 | 0.141 ± 0.00143 | –
291.15 K, x1 = 0.166 | – | 665.38 ± 0.32
291.15 K, x1 = 0.2072 | 0.1824 ± 0.00167 | –
291.15 K, x1 = 0.26 | – | 688.38 ± 0.36
291.15 K, x1 = 0.2696 | 0.2106 ± 0.00191 | –
291.15 K, x1 = 0.308 | – | 700.63 ± 0.4
291.15 K, x1 = 0.3154 | 0.2273 ± 0.00191 | –
291.15 K, x1 = 0.3689 | 0.2395 ± 0.00215 | –
291.15 K, x1 = 0.4172 | 0.2433 ± 0.00215 | –
291.15 K, x1 = 0.448 | – | 737.83 ± 0.51
291.15 K, x1 = 0.46 | 0.2431 ± 0.00215 | –
291.15 K, x1 = 0.4953 | 0.2402 ± 0.00215 | –
291.15 K, x1 = 0.5199 | 0.238 ± 0.00215 | –
291.15 K, x1 = 0.537 | – | 763.24 ± 0.61
291.15 K, x1 = 0.5543 | 0.2321 ± 0.00191 | –
291.15 K, x1 = 0.5955 | 0.2218 ± 0.00191 | –
291.15 K, x1 = 0.631 | 0.2122 ± 0.00191 | –
291.15 K, x1 = 0.651 | – | 796.41 ± 0.77
291.15 K, x1 = 0.678 | 0.1974 ± 0.00167 | –
291.15 K, x1 = 0.703 | – | 812.04 ± 0.86
291.15 K, x1 = 0.7184 | 0.1807 ± 0.00167 | –
291.15 K, x1 = 0.7665 | 0.1597 ± 0.00143 | –
291.15 K, x1 = 0.819 | 0.1322 ± 0.0012 | 848.4 ± 1.1
291.15 K, x1 = 0.847 | – | 857.3 ± 1.2
291.15 K, x1 = 0.879 | 0.0949 ± 0.000956 | –
291.15 K, x1 = 0.938 | – | 886.86 ± 1.4
291.15 K, x1 = 0.9403 | 0.0528 ± 0.000956 | –
291.15 K, x1 = 1 | – | 907.97 ± 1.6
298.15 K, x1 = 0.042 | 0.0468 ± 0.000956 | –
298.15 K, x1 = 0.0505 | – | 631.54 ± 0.28
298.15 K, x1 = 0.0794 | – | 638.09 ± 0.29
298.15 K, x1 = 0.1081 | 0.114 ± 0.0012 | –
298.15 K, x1 = 0.1375 | – | 651.43 ± 0.31
298.15 K, x1 = 0.1456 | 0.158 ± 0.00143 | –
298.15 K, x1 = 0.2012 | – | 666.5 ± 0.33
298.15 K, x1 = 0.2109 | 0.2017 ± 0.00167 | –
298.15 K, x1 = 0.2525 | – | 679.23 ± 0.36
298.15 K, x1 = 0.2706 | 0.2294 ± 0.00191 | –
298.15 K, x1 = 0.3178 | – | 695.79 ± 0.4
298.15 K, x1 = 0.3317 | 0.2495 ± 0.00215 | –
298.15 K, x1 = 0.3733 | – | 710.12 ± 0.44
298.15 K, x1 = 0.3889 | 0.2596 ± 0.00215 | –
298.15 K, x1 = 0.4303 | – | 725.46 ± 0.49
298.15 K, x1 = 0.4431 | 0.2631 ± 0.00215 | –
298.15 K, x1 = 0.4798 | – | 739.19 ± 0.55
298.15 K, x1 = 0.4882 | – | 741.75 ± 0.55
298.15 K, x1 = 0.4905 | 0.2627 ± 0.00215 | –
298.15 K, x1 = 0.5353 | 0.2584 ± 0.00215 | –
298.15 K, x1 = 0.5467 | – | 758.38 ± 0.62
298.15 K, x1 = 0.5637 | 0.2548 ± 0.00215 | –
298.15 K, x1 = 0.6019 | – | 774.28 ± 0.69
298.15 K, x1 = 0.6149 | 0.245 ± 0.00215 | –
298.15 K, x1 = 0.67 | 0.2326 ± 0.00191 | –
298.15 K, x1 = 0.6778 | – | 796.75 ± 0.81
298.15 K, x1 = 0.7271 | 0.2125 ± 0.00191 | –
298.15 K, x1 = 0.7597 | – | 822.01 ± 0.96
298.15 K, x1 = 0.7888 | 0.1809 ± 0.00167 | –
298.15 K, x1 = 0.8079 | – | 837.19 ± 1.1
298.15 K, x1 = 0.8503 | – | 850.78 ± 1.2
298.15 K, x1 = 0.8511 | 0.141 ± 0.00143 | –
298.15 K, x1 = 0.9096 | 0.0927 ± 0.0012 | –
298.15 K, x1 = 0.9251 | – | 874.84 ± 1.4
298.15 K, x1 = 0.9655 | 0.0442 ± 0.000956 | –
298.15 K, x1 = 1 | – | 899.86 ± 1.6

COC=O [methyl methanoate] + CCCCC
291.15 K
Details | excess molar enthalpy [kcal/mol] | mass density [kg/m3]
[3], x1 = 0.091 | – | 640.27 ± 0.25
[3], x1 = 0.102 | – | 641.95 ± 0.25
[3], x1 = 0.147 | – | 649.45 ± 0.25
[3], x1 = 0.206 | – | 660.56 ± 0.26
[3], x1 = 0.27 | – | 674.05 ± 0.26
[3], x1 = 0.309 | – | 683.08 ± 0.27
[3], x1 = 0.371 | – | 698.6 ± 0.27
[3], x1 = 0.393 | – | 704.52 ± 0.28
[3], x1 = 0.416 | – | 710.63 ± 0.28
[3], x1 = 0.451 | – | 721.01 ± 0.29
[3], x1 = 0.488 | – | 732.21 ± 0.29
[3], x1 = 0.506 | – | 737.92 ± 0.3
[3], x1 = 0.559 | – | 755.6 ± 0.3
[3], x1 = 0.618 | – | 776.61 ± 0.32
[3], x1 = 0.695 | – | 807.5 ± 0.34
[3], x1 = 0.759 | – | 835.94 ± 0.35
[3], x1 = 0.786 | – | 849.13 ± 0.38
[3], x1 = 0.827 | – | 870.13 ± 0.38
[3], x1 = 0.84 | – | 876.82 ± 0.38
[3], x1 = 0.941 | – | 936.47 ± 0.44
[3], x1 = 1 | – | 977.21 ± 0.23
[4], x1 = 0.1107 | 0.1511 ± 0.00143 | –
[4], x1 = 0.2113 | 0.2758 ± 0.00239 | –
[4], x1 = 0.3055 | 0.3714 ± 0.00311 | –
[4], x1 = 0.3765 | 0.418 ± 0.00335 | –
[4], x1 = 0.438 | 0.4412 ± 0.00359 | –
[4], x1 = 0.4783 | 0.4484 ± 0.00359 | –
[4], x1 = 0.5268 | 0.4539 ± 0.00359 | –
[4], x1 = 0.5716 | 0.4503 ± 0.00359 | –
[4], x1 = 0.6028 | 0.4398 ± 0.00359 | –
[4], x1 = 0.6356 | 0.4264 ± 0.00359 | –
[4], x1 = 0.6702 | 0.4089 ± 0.00335 | –
[4], x1 = 0.7191 | 0.3817 ± 0.00311 | –
[4], x1 = 0.7683 | 0.3425 ± 0.00287 | –
[4], x1 = 0.8256 | 0.2882 ± 0.00239 | –
[4], x1 = 0.8773 | 0.2266 ± 0.00215 | –
[4], x1 = 0.9215 | 0.158 ± 0.00167 | –
[4], x1 = 0.9587 | 0.0827 ± 0.00143 | –

CCCCC [pentane] + CCCOC=O
[3], x2 = 0
Details | mass density [kg/m3]
291.15 K | 627.86 ± 0.23
298.15 K | 620.89 ± 0.23
